Consider three compounds from patent publication US20240343720A1, “AAK1 INHIBITOR AND USE THEREOF” (Xizang Haisco Pharmaceutical Co., Ltd., priority 2021, published 2024).

Data set [1] deals with hERG potassium ion channel (Homo sapiens (Human), UniProt Q12809). The data set is described as follows: Test for hERG potassium ion channel (manual whole cell patch-clamp). Format: cell-based. Particulars: for IC50: CHO cells stably expressing hERG, read-out: IC50 (hERG potassium channel current); for inhibition at 40 µM: human, CHO cells stably expressing hERG potassium channel, read-out: Inhibition rate at the highest concentration tested (hERG potassium channel current). The source says: Experimental platform: electrophysiological manual patch-clamp system
Cell line: Chinese hamster ovary (CHO) cell lines stably expressing hERG potassium ion channel
Experimental method: In CHO (Chinese Hamster Ovary) cells stably expressing hERG potassium channel, whole cell patch-clamp technique was used to record hERG potassium channel current at room temperature. The glass microelectrode was made of a glass electrode blank (BF150-86-10, Sutter) by a puller. The tip resistance after filling the liquid in the electrode was about 2-5 MΩ. The glass microelectrode can be connected to the patch-clamp amplifier by inserting the glass microelectrode into an amplifier probe. The clamping voltage and data recording were controlled and recorded by the pClamp 10 software through a computer. The sampling frequency was 10 kHz, and the filtering frequency was 2 kHz. After the whole cell records were obtained, the cells were clamped at −80 mV, and the step voltage that induced the hERG potassium current (IhERG) was depolarized from −80 mV to +20 mV for 2 s, then repolarized to −50 mV, and returned to −80 mV after 1 s. This voltage stimulation was given every 10 s, and the administration process was started after the hERG potassium current was confirmed to be stable (at least 1 minute). The compound was administered for at least 1 minute at each test concentration, and at least 2 cells (n≥2) were tested at each concentration.
Data processing: Data analysis processing was carried out by using pClamp 10, GraphPad Prism 5 and Excel software. The inhibition degree of hERG potassium current (peak value of hERG tail current induced at −50 mV) at different compound concentrations was calculated by the following formula: […]
wherein, Inhibition % represents the percentage of inhibition of hERG potassium current by the compound, and I and Io represent the amplitude of hERG potassium current after and before dosing, respectively.
Compound IC50 was calculated using GraphPad Prism 5 software by fitting according to the following equation: […]
Among the equation, X represents the Log value of the tested concentration of the test sample, Y represents the inhibition percentage at the corresponding concentration, and Bottom and Top represent the minimum and maximum inhibition percentage, respectively.

For another data set, the target named is AAK1 (Homo sapiens (Human), UniProt Q2M2I8). The data set is described as follows: In vitro AAK1 enzyme activity assay (ADP-Glo). The format is biochemical. The settings on record: read-out: Inhibitory activity against AAK1 IC50. As for the experimental part: Compound stock solution (concentration: 10 mM, dissolved in DMSO) was diluted with DMSO to 0.2 mM and then diluted with DMSO in 5-fold gradient to obtain compound solutions with 10 concentrations. Subsequently, the compound solutions with different concentrations were diluted 50-fold in 1×kinase reaction buffer (containing 40 mM Tris, 20 mM MgCl2, 0.1% BSA and 0.5 mM DTT) for later use. AAK1 (Signalchem, Cat #A01-11G-10) was diluted with 1×kinase reaction buffer to 2-fold the final concentration (final concentrations: 30 nM and 28 nM). AAK1 was added to a 384-well white plate at 2 μL/well, and the compounds were then added at 1 μL/well. The plate was sealed with a plate-sealing film, centrifuged at 1000 rpm for 30 seconds and then placed at room temperature for 10 minutes. A mixed solution of ATP (Promega, Cat #V914B) and substrate Micro2 (GenScript, Cat #PE0890) was formulated at 4-fold the final concentration (for AAK1, the corresponding final concentrations of ATP: 15 μM and 5 μM, and the corresponding final concentration of Micro2: 0.1 mg/mL). To the reaction plate was added the mixed solution of ATP and the substrate at 1 μL/well. The plate was sealed with a plate-sealing film and centrifuged at 1000 rpm for 30 seconds. The reaction was carried out at room temperature for 60 minutes (AAK1). ADP-Glo (Promega, Cat #V9102) was transferred to the 384-well plate at 4 μL/well and centrifugation was carried out at 1000 rpm for 1 minute. The mixture was incubated at 25° C. for 40 minutes. A detection solution was transferred to the 384-well plate at 8 μL/well and centrifugation was carried out at 1000 rpm for 1 minute. The resulting mixture was incubated at 25° C. for 40 minutes. The RLU (Relative luminescence unit) signal values were read using a Biotek multilable microplate reader and the percent inhibition was calculated according to the following formula: [1−(LUMcompound−LUMpositive control)/(LUMnegative control−LUMpositive control)]×100. IC50 values were calculated using Graphpad 7.0 software using a four-parameter non-linear fit equation.
On the technique in general: In ADP-Glo the light output rises with the ADP produced.

In data set [2] the test system is SNL-induced mouse model of neuropathic pain. The data set is described as follows: Spinal nerve ligation (SNL)-induced mouse model of neuropathic pain, mechanical pain threshold (MPT). The settings on record: for Time at which analgesic efficacy reached the peak after the administration / Effect on pain threshold (MPT) of mice after SNL modelling: 10 mg/kg intragastrically, single administration; for Effect on pain threshold (MPT) of mice after SNL modelling: 1, 3 and 6 hours after administration. The format is in vivo, C57BL/6J mice. The source says:
Male C57BL/6J mice (8 weeks old) purchased from Jinan Pengyue Experimental Animal Breeding Co., Ltd. were adaptively raised for one week and then the models were established. The specific establishment method comprises the following steps: • 1) disinfecting the surgical instrument and ligature; • 2) anesthetizing the mice with isoflurane and then placing the mice on the operating table in the prone position; • 3) shaving the fur near the hip bones of the mice and preparing the skin, and making an incision of about 2 cm along the spine; • 4) isolating the fascia along the spine, performing blunt dissection of the muscles, and exposing the transverse process of L5; • 5) carefully cutting the transverse process of L5 with forceps and exposing the L5 spinal nerve; • 6) carefully isolating the L5 nerve with a glass dissecting needle, and ligating the L5 nerve with a 5-0 ligature; and • 7) suturing the muscles and skin and disinfecting same with iodophor.
The mice that were unsuccessful in modeling were eliminated the next day after modeling (marker for successful modeling: mice with their hind paws curled up). After modeling, the mice were stroked for 3 to 5 minutes every day to ensure that the animals were familiar with the experimenter, and then the mice were placed on a metal pain measuring frame for 40 to 60 minutes of adaptation. After 3 days of acclimatization, Von Frey filaments (Aesthesio®; 0.16 g, 0.4 g, 0.6 g, 1.0 g, 1.4 g and 2.0 g) were used to test the pre-administration baseline values of the animals (Ascending testing approach). Each animal was tested twice and average values were taken, with intervals of at least 5 minutes. The animals were grouped according to the baseline values (10 animals per group). After the grouping, LX-9211 (1 and 10 mg/kg), compound 3 (1 and 10 mg/kg) or vehicle (40% PEG-400+10% ethanol+15% Tween 80+35% physiological saline) were administered intragastrically. The mice were tested for the mechanical pain threshold (MPT) at 1, 3 and 6 hours after the administration. Time-MPT curve was plotted using GraphPad 8.3.0, and statistical analysis was performed.

Data set [3] can be described thus: Mouse brain/blood ratio test. Format: in vivo. The settings on record: ICR mice, i.g. (10 mg/kg); for Kp / AUC(0-t): male, mouse, po; for Kp: brain/plasma; for AUC(0-t): plasma, read-out: Plasma AUC0-t. As for the experimental part:
5.1 Experimental animals: Male ICR mice, 20-25 g, 9 mice/compound. Purchased from Chengdu Ddossy Experimental Animals Co., Ltd.
5.2 Experimental design: on the day of the experiment, 18 ICR mice were randomly grouped according to their body weights. The animals were fasted with water available for 12 to 14 h one day before the administration, and were fed 4 h after the administration;
After intragastric administration, whole blood and brain tissue were collected at 0.5 h, 4 h and 24 h, and the whole blood was centrifuged to separate the plasma. The brain tissue was rinsed with cold physiological saline to remove the residual blood on the surface, drained out and then homogenized. Before analysis and detection, all samples were stored at −80° C. The samples were analyzed quantitatively by LC-MS/MS.

A short description of data set [4]: Pharmacokinetic test in beagle dogs. The format is in vivo. The settings on record: for AUC(0-t) / clearance / Vd: male, dog, plasma; for Vd: read-out: Vdss. The protocol: Experimental animals: male beagle dogs, about 8-11 kg, 6 beagle dogs/compound, purchased from Beijing Marshall Biotechnology Co., Ltd.
Experimental method: on the day of the experiment, 12 beagle dogs were randomly grouped according to their body weights. the animals were fasted with water available for 12 to 14 h one day before the administration, and were fed 4 h after the administration; and the administration was performed according to Table 2.
Before and after the administration, 1 ml of blood was taken from the jugular veins or limb veins, and placed in an EDTAK2 centrifuge tube. Centrifugation was performed at 5000 rpm at 4° C. for 10 min, and plasma was collected. Blood sampling time points for both the LX9211 intravenous administration group and intragastric administration group include: 0 min, 5 min, 15 min, 30 min, 1 h, 2 h, 4 h, 6 h, 8 h, 10 h, 12 h, and 24 h, and blood sampling time points for both the compound 19 intravenous administration group and intragastric administration group include: 0 min, 5 min, 15 min, 30 min, 1 h, 2 h, 4 h, 6 h, 8 h, 10 h, 12 h, 24 h, and 48 h. Before analysis and detection, all samples were stored at −80° C. The samples were analysed quantitatively by LC-MS/MS.

hERG potassium ion channel, sequence (Q12809 whole entry): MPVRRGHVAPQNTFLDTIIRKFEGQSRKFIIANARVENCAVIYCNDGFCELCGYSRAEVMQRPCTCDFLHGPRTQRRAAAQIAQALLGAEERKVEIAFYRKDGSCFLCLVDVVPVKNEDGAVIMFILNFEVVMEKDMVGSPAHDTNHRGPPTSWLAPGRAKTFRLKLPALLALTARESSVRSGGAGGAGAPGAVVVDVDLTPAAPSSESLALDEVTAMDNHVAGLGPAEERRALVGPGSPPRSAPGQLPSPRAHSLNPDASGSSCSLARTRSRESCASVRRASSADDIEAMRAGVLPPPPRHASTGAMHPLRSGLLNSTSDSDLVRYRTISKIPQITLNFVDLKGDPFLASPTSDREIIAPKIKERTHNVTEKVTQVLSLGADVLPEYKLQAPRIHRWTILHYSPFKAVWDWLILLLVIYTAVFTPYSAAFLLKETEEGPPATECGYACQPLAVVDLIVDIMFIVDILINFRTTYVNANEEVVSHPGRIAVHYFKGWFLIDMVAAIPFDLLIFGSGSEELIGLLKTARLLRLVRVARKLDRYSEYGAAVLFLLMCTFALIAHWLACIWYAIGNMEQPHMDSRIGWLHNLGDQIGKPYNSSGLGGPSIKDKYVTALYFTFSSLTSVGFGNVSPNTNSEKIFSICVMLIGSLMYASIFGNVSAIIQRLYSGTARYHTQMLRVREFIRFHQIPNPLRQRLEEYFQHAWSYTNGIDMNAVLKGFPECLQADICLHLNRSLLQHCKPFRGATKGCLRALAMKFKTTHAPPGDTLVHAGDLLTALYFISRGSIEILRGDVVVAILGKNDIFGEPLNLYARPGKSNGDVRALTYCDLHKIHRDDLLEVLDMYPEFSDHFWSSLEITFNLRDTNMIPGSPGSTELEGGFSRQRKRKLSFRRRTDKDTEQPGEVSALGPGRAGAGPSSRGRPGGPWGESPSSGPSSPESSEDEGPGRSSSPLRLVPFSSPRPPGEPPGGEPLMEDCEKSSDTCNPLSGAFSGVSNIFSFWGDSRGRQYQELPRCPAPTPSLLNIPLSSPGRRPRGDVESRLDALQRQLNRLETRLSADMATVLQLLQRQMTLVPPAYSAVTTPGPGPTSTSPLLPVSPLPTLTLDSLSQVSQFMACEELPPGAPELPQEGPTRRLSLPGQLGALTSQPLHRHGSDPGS
AAK1, sequence (Q2M2I8 27-365): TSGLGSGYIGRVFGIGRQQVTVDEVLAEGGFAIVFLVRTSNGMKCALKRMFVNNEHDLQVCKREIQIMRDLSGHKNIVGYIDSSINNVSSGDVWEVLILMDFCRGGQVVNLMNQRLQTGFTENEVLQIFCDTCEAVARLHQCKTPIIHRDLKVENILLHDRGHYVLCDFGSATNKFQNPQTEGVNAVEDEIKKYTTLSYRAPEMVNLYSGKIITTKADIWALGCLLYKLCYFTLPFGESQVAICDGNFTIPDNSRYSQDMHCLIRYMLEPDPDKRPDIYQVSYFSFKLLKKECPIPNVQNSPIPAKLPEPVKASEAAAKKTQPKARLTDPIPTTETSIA

Take `C=C(C)C[C@](C)(N)COc1ccc(-c2ccnc(C(F)F)c2)nc1C(F)F` [Compound 3, (S)-1-((2′,6-bis(difluoromethyl)-[2,4′-bipyridin]-5-yl)oxy)-2,4-dimethylpent-4-en-2-amine]: in data set [1], the IC50 was found to be 8750 nM and the inhibition at 40 µM is 86.6 ± 1.77%. Also, the IC50 on AAK1 worked out at 10.9 nM. In data set [2], the “Time at which analgesic efficacy reached the peak after the administration” value came out at 3 h and the “Effect on pain threshold (MPT) of mice after SNL modelling” value is on record as “effectively increased the pain threshold”. Moreover, the “Analgesic efficacy compared with LX-9211” value in data set [2] (10 mg/kg, at 3 and 6 hours after the administration) was “better efficacy than LX-9211”. Further, in data set [3], the “Brain tissue AUC0-t” value was 36853 ng·h/g, the Kp was found to be 64.5 and the AUC(0-t) came to 572 ng·h/mL.

As to `COC(=O)Nc1cc(-c2ccc(OC[C@@](C)(N)CC(C)(C)F)c(C(F)F)n2)ccn1` [Compound 19, Methyl (S)-(5-((2-amino-4-fluoro-2,4-dimethylpentyl)oxy)-6-(difluoromethyl) [2,4′-bipyridin]-2′-yl)carbamate], in data set [1], the IC50 was found to be 24100 nM and the inhibition at 40 µM was found to be 68.9 ± 1.8%. Besides, the IC50 at AAK1 is 37.7 nM. In data set [4] (i.g. (3 mg/kg)), this compound showed an F of 113 ± 6.9%. In data set [4] (iv, i.v. (1 mg/kg)), the AUC(0-t) was 398 ± 94 ng·h/mL, the clearance stood at 39.8 ± 10 mL/min/kg and the Vd was 23.6 ± 3.8 L/kg. In data set [4] (po, i.g. (3 mg/kg)), this compound displayed an AUC(0-t) of 1350 ± 83 ng·h/mL.

Regarding `CC(C)C[C@](C)(N)COc1ccc(-c2ccnc(C(F)F)c2)nc1C(F)F` [LX-9211, reference compound], in data set [1], the IC50 was found to be 1820 nM and the inhibition at 40 µM amounted to 102 ± 4.08%. Also, in data set [2], the “Time at which analgesic efficacy reached the peak after the administration” value was 1 h and the “Effect on pain threshold (MPT) of mice after SNL modelling” value is given as “effectively increased the pain threshold”. For the same compound, in data set [3], the “Brain tissue AUC0-t” value worked out at 110424 ng·h/g, the Kp is 16.6 and the AUC(0-t) came to 6640 ng·h/mL. The F in data set [4] (i.g. (3 mg/kg)) was found to be 22.2 ± 8.1%. Further, in data set [4] (iv, i.v. (1 mg/kg)), the AUC(0-t) is 751 ± 204 ng·h/mL, the clearance was determined as 22.2 ± 7.7 mL/min/kg and the Vd was 9.08 ± 1.4 L/kg. In addition, the AUC(0-t) in data set [4] (po, i.g. (3 mg/kg)) was determined as 500 ± 183 ng·h/mL.

What is called IC50 is the midpoint of a concentration-inhibition curve. As usually defined, the Kp is tissue or fluid exposure divided by exposure in the circulation. As a reminder, the clearance is the volume of plasma or blood freed of the substance per unit of time.
